In the supplement of paper PMC10307832:

Columns and labels:
Assay in all cases: relative viability (nuclei count vs DMSO), 5 days (fraction); higher = more cells survive
201T = tested on: 201T
Method in brief: (§1)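 A single step with final 0.05% Triton X-100, 1% formaldehyde and 1 ug/ml Hoechst fixed the cells and stained nuclei 5 days after treatment. Lung cancer cell lines in 1536-well plates had been treated by pin tool the day after seeding with one drug alone or a fixed anchor-drug dose plus five library-drug doses (not always all listed) in √10 steps, and nuclei were counted on 4× images. Relative viability is the ratio of nuclei in treated wells to nuclei in vehicle wells, taken as the median of duplicate plates.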

ABC-1 = tested on: ABC-1
Method in brief: as §1

EMC-BAC-2 = tested on: EMC-BAC-2
Method in brief: as §1

EPLC-272H = tested on: EPLC-272H
Method in brief: as §1

HCC-78 = tested on: HCC-78
Method in brief: as §1

LCLC-103H = tested on: LCLC-103H
Method in brief: as §1

LOU-NH91 = tested on: LOU-NH91
Method in brief: as §1

NCI-H1395 = tested on: NCI-H1395
Method in brief: as §1

NCI-H1437 = tested on: NCI-H1437
Method in brief: as §1

NCI-H1651 = tested on: NCI-H1651
Method in brief: as §1

NCI-H1734 = tested on: NCI-H1734
Method in brief: as §1

NCI-H1792 = tested on: NCI-H1792
Method in brief: as §1

NCI-H1793 = tested on: NCI-H1793
Method in brief: as §1

NCI-H1915 = tested on: NCI-H1915
Method in brief: as §1

NCI-H1975 = tested on: NCI-H1975
Method in brief: as §1

NCI-H23 = tested on: NCI-H23
Method in brief: as §1

NCI-H2405 = tested on: NCI-H2405
Method in brief: as §1

NCI-H647 = tested on: NCI-H647
Method in brief: as §1

RERF-LC-KJ = tested on: RERF-LC-KJ
Method in brief: as §1

## Cc1cnc(-c2cnc(NCCNc3ccc(C#N)cn3)nc2-c2ccc(Cl)cc2Cl)[nH]1 + NC(=O)Nc1cc(-c2cccc(F)c2)sc1C(=O)N[C@H]1CCCNC1 [AZD7762] (partner 0.2 µM)
201T; first compound 0.08 µM
  relative viability: 0.702
201T; first compound 0.8 µM
  relative viability: 0.567
201T; first compound 2.53 µM
  relative viability: 0.619
ABC-1; first compound 0.253 µM
  relative viability: 0.772
ABC-1; first compound 0.8 µM
  relative viability: 0.771
ABC-1; first compound 2.53 µM
  relative viability: 0.862
EMC-BAC-2; first compound 0.08 µM
  relative viability: 1.24
EMC-BAC-2; first compound 0.253 µM
  relative viability: 1.21
EMC-BAC-2; first compound 0.8 µM
  relative viability: 1.04
EMC-BAC-2; first compound 2.53 µM
  relative viability: 1.01
EPLC-272H; first compound 0.08 µM
  relative viability: 0.36
EPLC-272H; first compound 0.253 µM
  relative viability: 0.269
EPLC-272H; first compound 0.8 µM
  relative viability: 0.224
EPLC-272H; first compound 2.53 µM
  relative viability: 0.202
HCC-78; first compound 0.08 µM
  relative viability: 0.582
HCC-78; first compound 0.253 µM
  relative viability: 0.582
HCC-78; first compound 0.8 µM
  relative viability: 0.604
HCC-78; first compound 2.53 µM
  relative viability: 0.606
LCLC-103H; first compound 0.08 µM
  relative viability: 0.86
LCLC-103H; first compound 0.253 µM
  relative viability: 0.76
LCLC-103H; first compound 0.8 µM
  relative viability: 0.714
LCLC-103H; first compound 2.53 µM
  relative viability: 0.757
LOU-NH91; first compound 0.08 µM
  relative viability: 0.823
LOU-NH91; first compound 0.253 µM
  relative viability: 0.753
LOU-NH91; first compound 0.8 µM
  relative viability: 0.768
LOU-NH91; first compound 2.53 µM
  relative viability: 0.83
NCI-H1395; first compound 0.08 µM
  relative viability: 0.425
NCI-H1395; first compound 0.253 µM
  relative viability: 0.43
NCI-H1395; first compound 0.8 µM
  relative viability: 0.4
NCI-H1395; first compound 2.53 µM
  relative viability: 0.374
NCI-H1437; first compound 0.08 µM
  relative viability: 1.17
NCI-H1437; first compound 0.253 µM
  relative viability: 1.06
NCI-H1437; first compound 0.8 µM
  relative viability: 1.06
NCI-H1437; first compound 2.53 µM
  relative viability: 1.01
NCI-H1651; first compound 0.08 µM
  relative viability: 0.506
NCI-H1651; first compound 0.253 µM
  relative viability: 0.406
NCI-H1651; first compound 0.8 µM
  relative viability: 0.454
NCI-H1651; first compound 2.53 µM
  relative viability: 0.459
NCI-H1734; first compound 0.08 µM
  relative viability: 0.513
NCI-H1734; first compound 0.253 µM
  relative viability: 0.522
NCI-H1734; first compound 0.8 µM
  relative viability: 0.543
NCI-H1734; first compound 2.53 µM
  relative viability: 0.459
NCI-H1792; first compound 0.08 µM
  relative viability: 0.8
NCI-H1792; first compound 0.253 µM
  relative viability: 0.611
NCI-H1792; first compound 0.8 µM
  relative viability: 0.594
NCI-H1792; first compound 2.53 µM
  relative viability: 0.446
NCI-H1793; first compound 0.08 µM
  relative viability: 0.735
NCI-H1793; first compound 0.253 µM
  relative viability: 0.379
NCI-H1793; first compound 0.8 µM
  relative viability: 0.385
NCI-H1793; first compound 2.53 µM
  relative viability: 0.461
NCI-H1915; first compound 0.08 µM
  relative viability: 0.692
NCI-H1915; first compound 0.8 µM
  relative viability: 0.675
NCI-H1915; first compound 2.53 µM
  relative viability: 0.644
NCI-H1975; first compound 0.08 µM
  relative viability: 0.818
NCI-H1975; first compound 0.253 µM
  relative viability: 0.583
NCI-H1975; first compound 0.8 µM
  relative viability: 0.575
NCI-H1975; first compound 2.53 µM
  relative viability: 0.506
NCI-H23; first compound 0.08 µM
  relative viability: 0.313
NCI-H23; first compound 0.253 µM
  relative viability: 0.16
NCI-H23; first compound 0.8 µM
  relative viability: 0.247
NCI-H23; first compound 2.53 µM
  relative viability: 0.256
NCI-H2405; first compound 0.08 µM
  relative viability: 0.758
NCI-H2405; first compound 0.253 µM
  relative viability: 0.595
NCI-H2405; first compound 0.8 µM
  relative viability: 0.744
NCI-H2405; first compound 2.53 µM
  relative viability: 0.333
NCI-H647; first compound 0.08 µM
  relative viability: 0.439
NCI-H647; first compound 0.253 µM
  relative viability: 0.341
NCI-H647; first compound 0.8 µM
  relative viability: 0.405
NCI-H647; first compound 2.53 µM
  relative viability: 0.364
RERF-LC-KJ; first compound 0.08 µM
  relative viability: 1.08
RERF-LC-KJ; first compound 0.253 µM
  relative viability: 0.801
RERF-LC-KJ; first compound 0.8 µM
  relative viability: 0.881
RERF-LC-KJ; first compound 2.53 µM
  relative viability: 0.985

## O=C(O)CCCCC(CCSCc1ccccc1)SCc1ccccc1 (stereo unspecified) [CPI-613] + NC(=O)Nc1cc(-c2cccc(F)c2)sc1C(=O)N[C@H]1CCCNC1 [AZD7762] (partner 0.2 µM)
201T; first compound 5 µM
  relative viability: 0.581
201T; first compound 15.81 µM
  relative viability: 0.62
201T; first compound 50 µM
  relative viability: 0.66
201T; first compound 158.11 µM
  relative viability: 0.318
201T; first compound 500 µM
  relative viability: 0.564
ABC-1; first compound 5 µM
  relative viability: 1.18
ABC-1; first compound 15.81 µM
  relative viability: 0.696
ABC-1; first compound 158.11 µM
  relative viability: 0.471
ABC-1; first compound 500 µM
  relative viability: 0.71
EMC-BAC-2; first compound 5 µM
  relative viability: 1.1
EMC-BAC-2; first compound 15.81 µM
  relative viability: 1.05
EMC-BAC-2; first compound 50 µM
  relative viability: 1.14
EMC-BAC-2; first compound 158.11 µM
  relative viability: 0.902
EMC-BAC-2; first compound 500 µM
  relative viability: 0.529
EPLC-272H; first compound 5 µM
  relative viability: 0.209
EPLC-272H; first compound 15.81 µM
  relative viability: 0.302
EPLC-272H; first compound 50 µM
  relative viability: 0.189
EPLC-272H; first compound 158.11 µM
  relative viability: 0.143
EPLC-272H; first compound 500 µM
  relative viability: 0.3
HCC-78; first compound 15.81 µM
  relative viability: 0.606
HCC-78; first compound 50 µM
  relative viability: 0.674
HCC-78; first compound 158.11 µM
  relative viability: 0.543
HCC-78; first compound 500 µM
  relative viability: 0.738
LCLC-103H; first compound 5 µM
  relative viability: 0.738
LCLC-103H; first compound 15.81 µM
  relative viability: 0.764
LCLC-103H; first compound 50 µM
  relative viability: 0.755
LCLC-103H; first compound 158.11 µM
  relative viability: 0.65
LCLC-103H; first compound 500 µM
  relative viability: 0.501
LOU-NH91; first compound 5 µM
  relative viability: 0.74
LOU-NH91; first compound 15.81 µM
  relative viability: 0.7
LOU-NH91; first compound 50 µM
  relative viability: 0.753
LOU-NH91; first compound 158.11 µM
  relative viability: 0.633
LOU-NH91; first compound 500 µM
  relative viability: 0.241
NCI-H1395; first compound 5 µM
  relative viability: 0.42
NCI-H1395; first compound 15.81 µM
  relative viability: 0.403
NCI-H1395; first compound 50 µM
  relative viability: 0.381
NCI-H1395; first compound 158.11 µM
  relative viability: 0.4
NCI-H1395; first compound 500 µM
  relative viability: 0.327
NCI-H1437; first compound 5 µM
  relative viability: 1.11
NCI-H1437; first compound 15.81 µM
  relative viability: 1.13
NCI-H1437; first compound 50 µM
  relative viability: 1.08
NCI-H1437; first compound 158.11 µM
  relative viability: 0.604
NCI-H1437; first compound 500 µM
  relative viability: 0.855
NCI-H1651; first compound 5 µM
  relative viability: 0.484
NCI-H1651; first compound 15.81 µM
  relative viability: 0.421
NCI-H1651; first compound 50 µM
  relative viability: 0.421
NCI-H1651; first compound 158.11 µM
  relative viability: 0.317
NCI-H1651; first compound 500 µM
  relative viability: 0.45
NCI-H1734; first compound 5 µM
  relative viability: 0.505
NCI-H1734; first compound 15.81 µM
  relative viability: 0.482
NCI-H1734; first compound 50 µM
  relative viability: 0.413
NCI-H1734; first compound 158.11 µM
  relative viability: 0.272
NCI-H1734; first compound 500 µM
  relative viability: 0.0982
NCI-H1792; first compound 5 µM
  relative viability: 0.691
NCI-H1792; first compound 15.81 µM
  relative viability: 0.616
NCI-H1792; first compound 50 µM
  relative viability: 0.57
NCI-H1792; first compound 158.11 µM
  relative viability: 0.135
NCI-H1792; first compound 500 µM
  relative viability: 0.047
NCI-H1793; first compound 5 µM
  relative viability: 0.447
NCI-H1793; first compound 15.81 µM
  relative viability: 0.367
NCI-H1793; first compound 50 µM
  relative viability: 0.372
NCI-H1793; first compound 158.11 µM
  relative viability: 0.11
NCI-H1793; first compound 500 µM
  relative viability: 0.0077
NCI-H1915; first compound 5 µM
  relative viability: 0.684
NCI-H1915; first compound 15.81 µM
  relative viability: 0.639
NCI-H1915; first compound 50 µM
  relative viability: 0.627
NCI-H1915; first compound 158.11 µM
  relative viability: 0.535
NCI-H1915; first compound 500 µM
  relative viability: 0.303
NCI-H1975; first compound 5 µM
  relative viability: 0.734
NCI-H1975; first compound 15.81 µM
  relative viability: 0.682
NCI-H1975; first compound 50 µM
  relative viability: 0.581
NCI-H1975; first compound 158.11 µM
  relative viability: 0.666
NCI-H1975; first compound 500 µM
  relative viability: 0.677
NCI-H23; first compound 5 µM
  relative viability: 0.212
NCI-H23; first compound 15.81 µM
  relative viability: 0.274
NCI-H23; first compound 50 µM
  relative viability: 0.218
NCI-H23; first compound 158.11 µM
  relative viability: 0.151
NCI-H23; first compound 500 µM
  relative viability: 0.0026
NCI-H2405; first compound 5 µM
  relative viability: 0.755
NCI-H2405; first compound 15.81 µM
  relative viability: 0.63
NCI-H2405; first compound 50 µM
  relative viability: 0.736
NCI-H2405; first compound 158.11 µM
  relative viability: 0.557
NCI-H2405; first compound 500 µM
  relative viability: 0.235
NCI-H647; first compound 5 µM
  relative viability: 0.502
NCI-H647; first compound 15.81 µM
  relative viability: 0.32
NCI-H647; first compound 50 µM
  relative viability: 0.406
NCI-H647; first compound 158.11 µM
  relative viability: 0.282
NCI-H647; first compound 500 µM
  relative viability: 0.343
RERF-LC-KJ; first compound 5 µM
  relative viability: 0.98
RERF-LC-KJ; first compound 15.81 µM
  relative viability: 0.917
RERF-LC-KJ; first compound 50 µM
  relative viability: 1
RERF-LC-KJ; first compound 158.11 µM
  relative viability: 0.94
RERF-LC-KJ; first compound 500 µM
  relative viability: 0.921
